{"source": "patent US4395553A", "about": "“Chemical compounds” (Bristol-Myers Company, priority 1982, dated 1983)", "key": {"gastric acid secretion [1]": {"test_system": "gastric acid secretion", "experiment": "Gastric Antisecretory Activity in the Gastric Fistula Rat", "assay_type": "in vivo, rat (male Long Evans)", "details": "sc; for ED50: read-out: ED50 sc", "method": "Male Long Evans rats weighing about 240-260 grams at the time of cannula implantation are used. […] The fistula components are designed and the operative procedure is carried out exactly as described in the above reference. Post operatively the animals are individually housed in solid bottom cages with sawdust and are allowed food and water ad libitum throughout the entire recovery period. Animals are not used for test purposes for at least 15 days after the operative procedure. The animals are fasted but allowed water ad libitum for 20 hours before the testing procedure is to begin. […] The catheter is then screwed into the cannula in place of the plugging screw and the rat is placed in a clear plastic rectangular cage measuring 40 cm long, 15 cm wide and 13 cm high. The bottom of the cage has a slit approximately 1.5 cm wide and 25 cm long running down the center to accommodate the catheter which hangs through it. In this way the rat is not restricted and can move freely about the cage during collection periods. The remainder of the assay is carried out as described by Ridley et al. [Research Comm. Chem. Path. […] Gastric secretions collected during the first hour after washing the stomach are discarded as they may be contaminated. For oral evaluation, the catheter is then removed from the cannula and replaced with the plugging screw. […] After this time the plugging screw is removed and replaced with a catheter to which a small plastic vial has been attached to collect the gastric secretions. A two hour sample is collected (this represents the control secretion), the catheter removed and replaced with the plugging screw. […] Forty-five minutes later the plugging screw is again removed, replaced with the catheter attached to a small plastic vial and another 2 hour sample is collected. The secretions in the second sample are compared to those of the control sample in order to determine the effects of the test drug. […] Titratable acid output is calculated in microequivalents by multiplying the volume in milliliters by the acid concentration in milliequivalents per liter. Results are expressed as percent inhibition relative to control readings. Dose response curves are constructed and ED50 values are calculated by regression analyses. At least three rats are used at each dosage level and a minimum of three dosage levels are utilized for determination of a dose response curve."}, "H2-receptor": {"test_system": "H2-receptor", "details": "cited from earlier work; for potency / effectiveness as H2-antagonist versus other H2-antagonist: compared with burimamide or metiamide"}, "agranulocytosis": {"test_system": "agranulocytosis", "details": "in vivo; cited from earlier work"}, "[2]": {"details": "cited from earlier work"}, "gastric acid secretion [3]": {"test_system": "gastric acid secretion", "experiment": "Gastric Antisecretory Activity in the Heidenhain Pouch Dog", "assay_type": "in vivo", "method": "Prior to surgery, hematology and blood chemistry profiles are obtained and an assessment made as to the general health of selected female dogs. Dogs are vaccinated with Tissue Vax 5 (DHLP--Pitman-Moore) and housed in general animal quarters for four weeks' observation so incipient diseases may become apparent. Dogs are fasted with water ad libitum 24 hours prior to surgery.\nAnesthesia is induced with Sodium Pentothal (Abbott) 25-30 mg/kg iv. Subsequent anesthesia is maintained with methoxyflurane (Pitman-Moore). A mid-line linea alba incision from xiphoid to umbilicus provides good exposure and ease of closure. The stomach is pulled up into the operative field, the greater curvature stretched out at multiple points and clamps placed along the selected line of incision. The pouch is made from the corpus of the stomach so that true parietal cell juice is obtained. About 30% of the corpus volume is resected. The cannula is made of light-weight,biologically-inert material such as nylon or Delrin with dimensions and attachments after DeVito and Harkins [J. Appl. Physiol., 14, 138 (1959)]. Post operatively, dogs are medicated with antibiotics and an analgesic. They are allowed 2-3 months for recovery. Experiments are carried out in the following way: Dogs are fasted overnight (~18 hours) with water ad libitum prior to each experiment. The dogs are placed in a sling and a saphenous vein cannulated for drug administration. Histamine as the base (100 μg/kg/hr) and chlorpheniramine maleate (0.25 mg/kg/hr) are infused continuously (in a volume of 6 ml/hr) with a Harvard infusion pump.\nNinety minutes' infusion are allowed for the dogs to reach a steady state of acid output. At this time the drug or normal saline (control) is administered concomitantly with the secretagogue in a volume of 0.5 ml/kg over a 30 second period. When oral studies are to be carried out, the drug is administered via gastric gavage in a volume of 5 ml/kg. Infusion of the secretagogue is continued and 15 minute samples of the gastric juice are taken for 4.5 hours. Each sample is measured to the nearest 0.5 ml and titratable acidity is determined by titrating a 1 ml sample to pH 7.0 with 0.2 N NaOH, using an Autoburet and an electrometric pH meter (Radiometer).Titratable acid output is calculated in microequivalents by multiplying the volume in milliliters by the acid concentration in milliequivalents per liter.\nResults are expressed as percent inhibition relative to control readings. Dose response curves are constructed and ED50 values are calculated by regression analyses. From 3 to 5 dogs are used at each dose level and a minimum of three dosage levels are utilized for determination of a dose response curve."}, "peptic ulcer disease": {"test_system": "peptic ulcer disease", "details": "clinical evaluation; cited from earlier work"}}, "data": [{"smiles": "CN(C)Cc1ccc(CSCCNc2c(N)c(=O)c2=O)o1", "note": "[Example 2, 1-Amino-2-{2-[(5-dimethylaminomethyl-2-furyl)methylthio]ethylamino}cyclobutene-3,4-dione]", "values": [{"measurement": "Potency Ratio (cimetidine = 1.0)", "setting": "gastric acid secretion [1]; Gastric Fistula Rat", "result": "~ 2"}, {"measurement": "ED50", "setting": "gastric acid secretion [1]; Gastric Fistula Rat", "result": "~2", "unit": "µmol/kg"}]}, {"smiles": "CNC(=S)NCCSCc1nc[nH]c1C", "note": "[Metiamide]", "values": [{"measurement": "potency / effectiveness as H2-antagonist versus other H2-antagonist", "setting": "H2-receptor", "result": "more potent than burimamide"}, {"measurement": "oral activity in man", "setting": "H2-receptor; oral, man", "result": "orally active in man"}, {"measurement": "toxicity (agranulocytosis)", "setting": "agranulocytosis", "result": "toxicity (agranulocytosis)"}]}, {"smiles": "CNC(=S)NCCCCc1cnc[nH]1", "note": "[Burimamide]", "values": [{"measurement": "inhibition of gastric secretion / clinical effectiveness", "setting": "H2-receptor; in animals and man", "result": "inhibits gastric secretion in animals and man"}, {"measurement": "oral absorption", "setting": "[2]", "result": "oral absorption is poor"}]}, {"smiles": "Nc1c(NCCCOc2cccc(CN3CCCCC3)c2)c(=O)c1=O", "note": "[Example 1, 1-Amino-2-[3-(3-piperidinomethylphenoxy)propylamino]cyclobutene-3,4-dione]", "values": [{"measurement": "Potency Ratio (cimetidine = 1.0)", "setting": "gastric acid secretion [1]; Gastric Fistula Rat", "result": 130}, {"measurement": "ED50", "setting": "gastric acid secretion [1]; Gastric Fistula Rat", "result": 0.029, "unit": "µmol/kg"}, {"measurement": "ED50", "setting": "gastric acid secretion [3]; Canis lupus familiaris, oral, read-out: ED50", "result": 0.175, "unit": "µmol/kg"}, {"measurement": "Potency Ratio (cimetidine = 1.0)", "setting": "gastric acid secretion [3]; iv", "result": 91}, {"measurement": "Potency Ratio (cimetidine = 1.0)", "setting": "gastric acid secretion [3]; oral", "result": 19}]}, {"smiles": "CNC(=NC#N)NCCSCc1nc[nH]c1C", "note": "[Cimetidine]", "values": [{"measurement": "ED50", "setting": "gastric acid secretion [1]; Rattus norvegicus", "result": 3.8, "unit": "µmol/kg"}, {"measurement": "ED50", "setting": "gastric acid secretion [3]; Canis lupus familiaris, iv", "result": 2.18, "unit": "µmol/kg"}, {"measurement": "ED50", "setting": "gastric acid secretion [3]; Canis lupus familiaris, po", "result": "~3.3", "unit": "µmol/kg"}, {"measurement": "ED50", "setting": "gastric acid secretion [3]; oral", "result": 3.29, "unit": "µmol/kg"}, {"measurement": "potency / effectiveness as H2-antagonist versus other H2-antagonist", "setting": "H2-receptor", "result": "as effective an H2 -antagonist as metiamide"}, {"measurement": "toxicity (agranulocytosis)", "setting": "agranulocytosis", "result": "without producing agranulocytosis"}, {"measurement": "therapeutic effect in treatment of peptic ulcer disease", "setting": "peptic ulcer disease", "result": "effective therapeutic agent in the treatment of peptic ulcer disease"}]}]}
